Source: PubChem BioAssay AID1259407 (Chemical Carcinogenesis Research Information System (CCRIS), 2018)
Calls of active or inactive are those of the source. No rule for the calls is given here.

Tested on: CCRIS mutagenicity, Ames/micronucleus/aberration tests
Assay: CCRIS mutagenicity studies
[1] = Test System: AMES SALMONELLA TYPHIMURIUM, Strain/Indicator: TA97, Metabolic Activation: NONE, Method: PREINCUBATION
[2] = Test System: AMES SALMONELLA TYPHIMURIUM, Strain/Indicator: TA97, Metabolic Activation: RAT, LIVER, S-9, AROCLOR 1254, Method: PREINCUBATION
[3] = Test System: AMES SALMONELLA TYPHIMURIUM, Strain/Indicator: TA102, Metabolic Activation: NONE, Method: PREINCUBATION
[4] = Test System: AMES SALMONELLA TYPHIMURIUM, Strain/Indicator: TA102, Metabolic Activation: RAT, LIVER, S-9, AROCLOR 1254, Method: PREINCUBATION

Measured: mutagenic call

C/C=C/c1ccc(O)c(OC)c1
inactive: End Point: E. coli, Test System: WP2uvrA/pKM101, Metabolic Activation: None, Method: Preincubation inactive; negative | End Point: E. coli, Test System: WP2uvrA/pKM101, Metabolic Activation: Rat, Liver, S-9, Aroclor 1254 (10%), Method: Preincubation inactive; negative | End Point: In vitro chromosomal aberrations, Test System: Chinese hamster ovary (CHO) cells, Metabolic Activation: None inactive; negative | End Point: In vitro chromosomal aberrations, Test System: Chinese hamster ovary (CHO) cells, Metabolic Activation: Rat, Liver, S-9, Aroclor 1254 inactive; negative | End Point: In vivo micronucleus, Test System: Micronucleated normochromatic erythrocytes in perripheral blood, Species: Mouse, Strain/Sex: B6C3F1 / Male, Route: Oral inactive; negative | [1] inactive; negative | [2] inactive; negative | Test System: AMES SALMONELLA TYPHIMURIUM, Strain/Indicator: TA98, Metabolic Activation: HAMSTER, LIVER, S-9, AROCLOR 1254, Method: STANDARD PLATE inactive; negative | Test System: AMES SALMONELLA TYPHIMURIUM, Strain/Indicator: TA98, Metabolic Activation: NONE, Method: STANDARD PLATE inactive; negative | Test System: AMES SALMONELLA TYPHIMURIUM, Strain/Indicator: TA98, Metabolic Activation: RAT, LIVER, S-9, AROCLOR 1254, Method: STANDARD PLATE inactive; negative | Test System: AMES SALMONELLA TYPHIMURIUM, Strain/Indicator: TA100, Metabolic Activation: HAMSTER, LIVER, S-9, AROCLOR 1254, Method: STANDARD PLATE inactive; negative | Test System: AMES SALMONELLA TYPHIMURIUM, Strain/Indicator: TA100, Metabolic Activation: NONE, Method: STANDARD PLATE inactive; negative | Test System: AMES SALMONELLA TYPHIMURIUM, Strain/Indicator: TA100, Metabolic Activation: RAT, LIVER, S-9, AROCLOR 1254, Method: STANDARD PLATE inactive; negative | [3] inactive; negative | [4] inactive; negative | Test System: AMES SALMONELLA TYPHIMURIUM, Strain/Indicator: TA1535, Metabolic Activation: HAMSTER, LIVER, S-9, AROCLOR 1254, Method: STANDARD PLATE inactive; negative | Test System: AMES SALMONELLA TYPHIMURIUM, Strain/Indicator: TA1535, Metabolic Activation: NONE, Method: STANDARD PLATE inactive; negative | Test System: AMES SALMONELLA TYPHIMURIUM, Strain/Indicator: TA1535, Metabolic Activation: RAT, LIVER, S-9, AROCLOR 1254, Method: STANDARD PLATE inactive; negative | Test System: AMES SALMONELLA TYPHIMURIUM, Strain/Indicator: TA1537, Metabolic Activation: HAMSTER, LIVER, S-9, AROCLOR 1254, Method: STANDARD PLATE inactive; negative | Test System: AMES SALMONELLA TYPHIMURIUM, Strain/Indicator: TA1537, Metabolic Activation: NONE, Method: STANDARD PLATE inactive; negative | Test System: AMES SALMONELLA TYPHIMURIUM, Strain/Indicator: TA1537, Metabolic Activation: RAT, LIVER, S-9, AROCLOR 1254, Method: STANDARD PLATE inactive; negative | Test System: AMES SALMONELLA TYPHIMURIUM, Strain/Indicator: TA1538, Metabolic Activation: HAMSTER, LIVER, S-9, AROCLOR 1254, Method: STANDARD PLATE inactive; negative | Test System: AMES SALMONELLA TYPHIMURIUM, Strain/Indicator: TA1538, Metabolic Activation: NONE, Method: STANDARD PLATE inactive; negative | Test System: AMES SALMONELLA TYPHIMURIUM, Strain/Indicator: TA1538, Metabolic Activation: RAT, LIVER, S-9, AROCLOR 1254, Method: STANDARD PLATE inactive; negative | Test System: MOUSE LYMPHOMA, Strain/Indicator: L5178Y (TK+/TK-), Metabolic Activation: RAT, LIVER, S-9, AROCLOR 1254, Method: SUSPENSION/PLATE inactive; negative. reevaluation of results: negative
active: End Point: In vivo micronucleus, Test System: Micronucleated normochromatic erythrocytes in perripheral blood, Species: Mouse, Strain/Sex: B6C3F1 / Female, Route: Oral active; positive | Test System: MOUSE LYMPHOMA, Strain/Indicator: L5178Y (TK+/TK-), Metabolic Activation: NONE, Method: SUSPENSION/PLATE active; positive. reevaluation of results: positive

O=C(O)COc1ccccc1
inactive: [1] inactive; negative | [2] inactive; negative | Test System: AMES SALMONELLA TYPHIMURIUM, Strain/Indicator: TA100, Metabolic Activation: NONE, Method: PREINCUBATION inactive; negative | Test System: AMES SALMONELLA TYPHIMURIUM, Strain/Indicator: TA100, Metabolic Activation: RAT, LIVER, S-9, AROCLOR 1254, Method: PREINCUBATION inactive; negative | [3] inactive; negative | [4] inactive; negative
